Test results published in ChEMBL document CHEMBL1201862, “PubChem BioAssay data set” (2004).
Active and inactive are the calls of the source.

Experiments:
[1] = biological target: T1, Neuropeptide Y receptor type 2 (Homo sapiens, UniProt P49146); test: NPY-Y2 antagonist potency, selectivity check, dose response, counter-screen for NPY-Y1 antagonist project, cell-based (AID 1278); format: functional
T1 sequence (P49146 whole entry): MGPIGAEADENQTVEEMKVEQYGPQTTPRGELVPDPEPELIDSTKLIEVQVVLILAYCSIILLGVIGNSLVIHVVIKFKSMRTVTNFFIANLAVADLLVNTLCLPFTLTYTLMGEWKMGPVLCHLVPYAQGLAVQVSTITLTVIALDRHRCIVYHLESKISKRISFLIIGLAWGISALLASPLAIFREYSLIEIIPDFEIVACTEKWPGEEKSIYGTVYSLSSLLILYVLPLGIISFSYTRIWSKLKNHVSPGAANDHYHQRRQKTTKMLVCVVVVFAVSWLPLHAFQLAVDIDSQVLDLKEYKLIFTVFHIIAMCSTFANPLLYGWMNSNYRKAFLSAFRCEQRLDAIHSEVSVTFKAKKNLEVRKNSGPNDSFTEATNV

[2] = biological target: T2, Neuropeptide Y receptor type 1 (Homo sapiens, UniProt P25929); test: NPY-Y1 receptor antagonist potency, dose response, cell-based (AID 1277); format: functional
T2 sequence (P25929 whole entry): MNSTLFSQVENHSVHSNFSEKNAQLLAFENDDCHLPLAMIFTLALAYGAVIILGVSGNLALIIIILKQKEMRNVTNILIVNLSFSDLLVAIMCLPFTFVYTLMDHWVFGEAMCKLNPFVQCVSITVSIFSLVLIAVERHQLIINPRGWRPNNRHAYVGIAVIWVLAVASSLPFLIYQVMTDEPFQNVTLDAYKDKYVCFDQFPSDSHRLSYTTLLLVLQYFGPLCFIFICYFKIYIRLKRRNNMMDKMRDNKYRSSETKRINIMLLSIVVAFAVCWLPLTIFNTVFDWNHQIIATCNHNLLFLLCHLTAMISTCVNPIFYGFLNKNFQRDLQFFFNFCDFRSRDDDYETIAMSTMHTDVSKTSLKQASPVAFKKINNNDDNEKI

Estrogen receptor beta [3] = biological target: T3, Estrogen receptor beta (Homo sapiens, UniProt Q92731); test: ERβ–SRC-3 coactivator interaction inhibitors, confirmation, orthogonal assay, biochemical, ELISA, streptavidin-HRP readout (AID 1060)
T3 sequence (Q92731 whole entry): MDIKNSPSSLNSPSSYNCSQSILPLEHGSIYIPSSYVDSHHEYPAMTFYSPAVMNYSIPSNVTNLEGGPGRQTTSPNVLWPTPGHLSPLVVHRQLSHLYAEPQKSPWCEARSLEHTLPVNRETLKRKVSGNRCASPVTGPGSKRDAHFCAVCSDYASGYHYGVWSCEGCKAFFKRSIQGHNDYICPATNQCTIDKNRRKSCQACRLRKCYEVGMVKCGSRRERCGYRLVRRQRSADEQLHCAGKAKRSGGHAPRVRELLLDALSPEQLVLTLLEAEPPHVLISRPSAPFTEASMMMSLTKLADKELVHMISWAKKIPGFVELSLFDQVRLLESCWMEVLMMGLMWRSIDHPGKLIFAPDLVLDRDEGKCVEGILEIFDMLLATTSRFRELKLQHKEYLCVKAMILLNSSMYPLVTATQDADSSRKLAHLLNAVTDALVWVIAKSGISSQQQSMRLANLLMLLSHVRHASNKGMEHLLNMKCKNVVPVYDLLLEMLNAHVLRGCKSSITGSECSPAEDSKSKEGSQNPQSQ

Ephrin type-A receptor 4 = Ephrin type-A receptor 4 (Mus musculus, UniProt Q03137); test: inhibitors of EphA4 binding to KYL peptide, primary screen, biochemical, colorimetric, mouse EphA4 (AID 689); format: functional
Ephrin type-A receptor 4, sequence (Q03137 whole entry): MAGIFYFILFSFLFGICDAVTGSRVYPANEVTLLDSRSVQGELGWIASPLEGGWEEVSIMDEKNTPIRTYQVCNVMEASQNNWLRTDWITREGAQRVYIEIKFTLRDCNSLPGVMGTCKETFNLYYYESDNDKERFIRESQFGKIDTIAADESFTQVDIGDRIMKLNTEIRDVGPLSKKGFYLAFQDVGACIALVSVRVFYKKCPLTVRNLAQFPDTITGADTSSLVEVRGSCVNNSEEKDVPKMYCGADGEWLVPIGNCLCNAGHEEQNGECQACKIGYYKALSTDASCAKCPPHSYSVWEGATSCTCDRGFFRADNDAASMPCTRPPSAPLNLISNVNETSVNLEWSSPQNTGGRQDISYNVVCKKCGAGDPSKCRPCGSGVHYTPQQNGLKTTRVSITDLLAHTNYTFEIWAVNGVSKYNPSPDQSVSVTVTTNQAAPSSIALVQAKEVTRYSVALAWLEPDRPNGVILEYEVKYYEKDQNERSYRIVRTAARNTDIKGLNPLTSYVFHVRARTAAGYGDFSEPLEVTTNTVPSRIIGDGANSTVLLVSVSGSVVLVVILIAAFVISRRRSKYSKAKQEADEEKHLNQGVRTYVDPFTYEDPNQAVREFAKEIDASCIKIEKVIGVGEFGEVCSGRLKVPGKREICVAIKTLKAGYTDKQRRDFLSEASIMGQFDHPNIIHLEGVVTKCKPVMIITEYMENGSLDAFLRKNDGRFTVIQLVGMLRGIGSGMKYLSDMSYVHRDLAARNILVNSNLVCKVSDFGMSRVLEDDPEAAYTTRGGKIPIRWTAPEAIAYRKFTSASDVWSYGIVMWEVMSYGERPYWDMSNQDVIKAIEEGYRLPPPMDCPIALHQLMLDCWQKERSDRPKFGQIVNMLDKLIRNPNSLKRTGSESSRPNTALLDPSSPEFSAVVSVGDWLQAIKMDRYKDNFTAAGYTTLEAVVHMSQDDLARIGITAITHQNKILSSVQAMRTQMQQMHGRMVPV

INS1 = test: beta cell apoptosis inhibitors, cytokine rescue, dose response, luminescence, retest (AID 449756); format: functional, cell-based; conditions: Rattus norvegicus;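 further: cell death triggered by IL-1 beta plus TNF-alpha plus IFN-gamma mixture; protective hits raise ATP signal compared with cytokine alone wells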
[4] = biological target: T4, Sentrin-specific protease 8 (Homo sapiens, UniProt Q96LD8); format: functional
T4 sequence (Q96LD8 whole entry): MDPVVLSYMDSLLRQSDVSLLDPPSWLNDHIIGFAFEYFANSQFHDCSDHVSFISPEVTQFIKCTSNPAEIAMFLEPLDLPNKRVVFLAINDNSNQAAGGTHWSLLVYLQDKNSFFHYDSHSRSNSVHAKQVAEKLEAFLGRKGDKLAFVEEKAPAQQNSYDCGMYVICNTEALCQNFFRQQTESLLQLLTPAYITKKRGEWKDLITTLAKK

Protein RecA = biological target: T5, Protein RecA (Mycobacterium tuberculosis, UniProt P9WHJ3); test: Fluorescence Cell-Free Homogeneous Dose Retest to Identify Inhibitors of RecA-Intein Splicing Activity. [Related pubchem assays (depositor defined):AID2097, AID2223, AID489010, AID492950]; format: functional
T5 sequence (P9WHJ3 whole entry): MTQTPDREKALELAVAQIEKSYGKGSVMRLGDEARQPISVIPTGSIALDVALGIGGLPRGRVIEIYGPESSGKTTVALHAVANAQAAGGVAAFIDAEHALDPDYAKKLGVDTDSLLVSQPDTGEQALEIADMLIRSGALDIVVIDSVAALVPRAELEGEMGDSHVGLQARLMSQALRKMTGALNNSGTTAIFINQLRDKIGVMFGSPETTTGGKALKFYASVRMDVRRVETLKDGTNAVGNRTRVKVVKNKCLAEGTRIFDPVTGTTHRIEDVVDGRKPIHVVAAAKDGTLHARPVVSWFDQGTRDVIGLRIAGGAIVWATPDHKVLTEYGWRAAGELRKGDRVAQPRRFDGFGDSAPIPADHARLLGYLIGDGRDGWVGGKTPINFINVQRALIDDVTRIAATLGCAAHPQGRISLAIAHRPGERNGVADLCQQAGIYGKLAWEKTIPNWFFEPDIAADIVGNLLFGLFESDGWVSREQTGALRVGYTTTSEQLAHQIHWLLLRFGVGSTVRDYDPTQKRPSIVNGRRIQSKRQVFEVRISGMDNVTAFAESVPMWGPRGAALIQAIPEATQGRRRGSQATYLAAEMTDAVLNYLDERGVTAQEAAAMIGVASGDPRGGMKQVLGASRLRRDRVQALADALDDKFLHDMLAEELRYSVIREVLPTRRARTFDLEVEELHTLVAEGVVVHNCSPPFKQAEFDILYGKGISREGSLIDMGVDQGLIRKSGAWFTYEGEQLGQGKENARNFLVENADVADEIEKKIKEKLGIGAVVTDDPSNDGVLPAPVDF

[5] = biological target: T4, Sentrin-specific protease 8; format: functional; remark: listed apart in the source
[6] = biological target: T6, Replicative DNA helicase DnaB (Mycobacterium tuberculosis, UniProt P9WMR3); test: DnaB intein splicing inhibitors, dose response, biochemical, cell-free fluorescence (AID 449749); format: functional
T6 sequence (P9WMR3 whole entry): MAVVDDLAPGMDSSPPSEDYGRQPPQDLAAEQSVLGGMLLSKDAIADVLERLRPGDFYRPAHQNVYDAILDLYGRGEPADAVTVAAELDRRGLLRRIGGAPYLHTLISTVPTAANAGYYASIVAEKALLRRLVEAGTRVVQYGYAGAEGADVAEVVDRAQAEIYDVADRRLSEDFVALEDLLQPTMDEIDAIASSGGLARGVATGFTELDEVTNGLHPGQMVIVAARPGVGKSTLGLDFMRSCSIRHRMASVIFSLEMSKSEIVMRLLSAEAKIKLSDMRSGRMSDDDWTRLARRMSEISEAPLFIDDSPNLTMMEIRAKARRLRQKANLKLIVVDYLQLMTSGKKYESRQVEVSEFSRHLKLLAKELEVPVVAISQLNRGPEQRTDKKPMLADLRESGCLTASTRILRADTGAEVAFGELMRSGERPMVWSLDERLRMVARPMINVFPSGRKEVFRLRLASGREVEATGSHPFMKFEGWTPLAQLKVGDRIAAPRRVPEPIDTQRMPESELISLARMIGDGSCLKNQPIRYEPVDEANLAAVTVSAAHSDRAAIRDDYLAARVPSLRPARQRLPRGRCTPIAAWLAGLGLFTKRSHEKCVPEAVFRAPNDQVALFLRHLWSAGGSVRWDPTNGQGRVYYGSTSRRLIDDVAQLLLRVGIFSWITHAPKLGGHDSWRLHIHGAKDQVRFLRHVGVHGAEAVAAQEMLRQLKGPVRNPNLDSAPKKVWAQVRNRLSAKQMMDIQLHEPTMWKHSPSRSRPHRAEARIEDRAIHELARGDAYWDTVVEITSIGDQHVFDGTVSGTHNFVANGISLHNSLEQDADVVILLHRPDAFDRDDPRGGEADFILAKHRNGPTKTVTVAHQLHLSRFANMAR

[7] = biological target: T7, Aryl hydrocarbon receptor (Homo sapiens, UniProt P35869); test: Luminescence-based cell-based high throughput dose response assay for activators of the Aryl Hydrocarbon Receptor (AHR). [Related pubchem assays: 2796 (Primary screen (AHR activators in singlicate)), 2845 (Confirmation screen (AHR activators in triplicate)), 434939 (Counterscreen (PXR activators in triplicate)), 2804 (Summary (AHR activators))]; format: ADME
T7 sequence (P35869 whole entry): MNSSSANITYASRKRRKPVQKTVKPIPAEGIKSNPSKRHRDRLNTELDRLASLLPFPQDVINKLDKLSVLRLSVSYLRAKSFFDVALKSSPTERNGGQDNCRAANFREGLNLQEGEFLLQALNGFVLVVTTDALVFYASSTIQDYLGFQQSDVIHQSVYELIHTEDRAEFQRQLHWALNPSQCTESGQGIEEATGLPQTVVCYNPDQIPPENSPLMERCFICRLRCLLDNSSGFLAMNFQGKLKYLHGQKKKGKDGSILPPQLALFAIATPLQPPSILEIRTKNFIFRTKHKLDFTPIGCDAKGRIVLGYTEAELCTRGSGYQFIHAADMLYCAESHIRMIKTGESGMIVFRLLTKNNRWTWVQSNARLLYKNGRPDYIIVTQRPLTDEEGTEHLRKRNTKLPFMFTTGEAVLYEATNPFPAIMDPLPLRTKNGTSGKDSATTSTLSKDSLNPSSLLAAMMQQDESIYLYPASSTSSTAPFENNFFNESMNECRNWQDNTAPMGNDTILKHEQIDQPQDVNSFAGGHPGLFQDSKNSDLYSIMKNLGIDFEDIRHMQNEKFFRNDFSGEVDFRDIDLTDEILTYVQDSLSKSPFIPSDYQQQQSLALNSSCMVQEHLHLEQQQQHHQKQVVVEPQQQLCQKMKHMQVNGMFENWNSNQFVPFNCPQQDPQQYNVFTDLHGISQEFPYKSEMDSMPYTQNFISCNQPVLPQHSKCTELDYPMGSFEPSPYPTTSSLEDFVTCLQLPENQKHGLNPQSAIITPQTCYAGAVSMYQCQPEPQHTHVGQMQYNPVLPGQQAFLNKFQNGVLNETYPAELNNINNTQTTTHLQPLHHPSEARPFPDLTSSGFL

Fatty acid synthase [8] = biological target: T8, Fatty acid synthase (Homo sapiens, UniProt P49327); test: FAS thioesterase domain inhibitors, dose response, biochemical, kinetic fluorescence intensity (AID 624326); format: functional;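 further: rate of fluorescence rise from hydrolysis of a fluorogenic O-methyl fluorescein ester substrate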
T8 sequence (P49327 whole entry, the tested form may be a part): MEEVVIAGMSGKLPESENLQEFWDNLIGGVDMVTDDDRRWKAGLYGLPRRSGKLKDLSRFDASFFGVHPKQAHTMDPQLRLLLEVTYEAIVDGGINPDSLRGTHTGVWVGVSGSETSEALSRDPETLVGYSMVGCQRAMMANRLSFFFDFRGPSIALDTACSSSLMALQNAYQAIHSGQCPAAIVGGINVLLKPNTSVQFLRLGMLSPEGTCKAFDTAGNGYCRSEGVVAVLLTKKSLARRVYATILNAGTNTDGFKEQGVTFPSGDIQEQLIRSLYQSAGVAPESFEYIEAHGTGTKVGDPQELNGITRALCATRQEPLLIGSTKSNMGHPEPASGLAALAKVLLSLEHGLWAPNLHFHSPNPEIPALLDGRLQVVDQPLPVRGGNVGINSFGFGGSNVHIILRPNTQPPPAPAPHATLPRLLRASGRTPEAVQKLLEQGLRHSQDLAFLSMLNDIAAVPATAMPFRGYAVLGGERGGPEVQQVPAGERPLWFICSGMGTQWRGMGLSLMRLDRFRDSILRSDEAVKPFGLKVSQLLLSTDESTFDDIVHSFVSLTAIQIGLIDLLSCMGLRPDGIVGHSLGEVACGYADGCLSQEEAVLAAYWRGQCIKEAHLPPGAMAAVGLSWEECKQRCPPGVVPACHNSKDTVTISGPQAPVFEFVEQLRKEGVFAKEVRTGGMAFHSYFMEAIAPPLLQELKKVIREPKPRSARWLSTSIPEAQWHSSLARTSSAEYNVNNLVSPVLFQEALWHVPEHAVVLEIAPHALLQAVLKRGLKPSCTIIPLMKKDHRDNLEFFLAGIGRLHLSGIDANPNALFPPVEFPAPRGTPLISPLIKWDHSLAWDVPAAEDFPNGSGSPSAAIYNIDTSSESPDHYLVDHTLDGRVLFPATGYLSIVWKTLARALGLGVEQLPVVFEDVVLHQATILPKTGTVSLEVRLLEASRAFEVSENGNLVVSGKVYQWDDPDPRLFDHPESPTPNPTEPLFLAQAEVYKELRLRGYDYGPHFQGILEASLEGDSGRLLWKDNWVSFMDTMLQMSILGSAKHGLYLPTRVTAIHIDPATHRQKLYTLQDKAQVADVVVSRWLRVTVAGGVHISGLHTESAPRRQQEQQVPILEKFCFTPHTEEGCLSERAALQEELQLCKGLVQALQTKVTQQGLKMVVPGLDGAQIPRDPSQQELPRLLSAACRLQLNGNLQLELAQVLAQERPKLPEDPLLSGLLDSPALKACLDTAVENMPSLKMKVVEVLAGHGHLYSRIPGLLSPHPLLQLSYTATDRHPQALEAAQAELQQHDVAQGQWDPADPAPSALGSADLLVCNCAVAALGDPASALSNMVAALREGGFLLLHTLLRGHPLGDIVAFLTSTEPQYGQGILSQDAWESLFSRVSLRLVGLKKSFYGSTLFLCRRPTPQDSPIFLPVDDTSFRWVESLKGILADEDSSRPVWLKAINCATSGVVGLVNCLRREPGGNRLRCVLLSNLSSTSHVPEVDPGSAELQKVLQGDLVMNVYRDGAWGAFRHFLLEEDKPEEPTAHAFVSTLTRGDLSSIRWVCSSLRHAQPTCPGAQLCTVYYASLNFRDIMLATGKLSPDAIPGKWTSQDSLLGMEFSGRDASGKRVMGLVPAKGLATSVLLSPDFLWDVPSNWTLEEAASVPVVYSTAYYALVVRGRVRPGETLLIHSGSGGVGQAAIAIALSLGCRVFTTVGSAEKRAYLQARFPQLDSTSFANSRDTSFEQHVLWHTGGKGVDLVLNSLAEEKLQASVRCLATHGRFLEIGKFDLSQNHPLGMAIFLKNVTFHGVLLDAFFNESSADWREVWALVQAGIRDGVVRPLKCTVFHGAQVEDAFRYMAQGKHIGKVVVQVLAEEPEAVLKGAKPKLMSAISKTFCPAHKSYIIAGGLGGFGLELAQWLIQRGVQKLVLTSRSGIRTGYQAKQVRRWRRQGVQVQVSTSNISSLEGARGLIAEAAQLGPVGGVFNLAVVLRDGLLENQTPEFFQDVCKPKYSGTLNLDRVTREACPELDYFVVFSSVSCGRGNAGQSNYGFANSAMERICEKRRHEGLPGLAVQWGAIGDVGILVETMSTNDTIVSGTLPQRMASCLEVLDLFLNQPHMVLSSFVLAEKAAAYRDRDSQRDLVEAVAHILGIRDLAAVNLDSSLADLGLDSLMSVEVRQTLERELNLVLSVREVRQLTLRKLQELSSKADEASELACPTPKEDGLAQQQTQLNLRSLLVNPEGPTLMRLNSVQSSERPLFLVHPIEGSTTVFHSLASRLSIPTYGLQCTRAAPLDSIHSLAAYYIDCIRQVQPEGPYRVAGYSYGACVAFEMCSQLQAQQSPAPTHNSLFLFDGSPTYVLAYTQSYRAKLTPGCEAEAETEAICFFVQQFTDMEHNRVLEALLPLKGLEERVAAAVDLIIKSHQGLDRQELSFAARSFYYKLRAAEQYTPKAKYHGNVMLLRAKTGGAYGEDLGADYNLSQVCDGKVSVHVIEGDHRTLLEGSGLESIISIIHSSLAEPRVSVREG

Fatty acid synthase [9] = biological target: T8, Fatty acid synthase; test: FAS thioesterase domain inhibitors, dose response, biochemical, endpoint fluorescence intensity, uHTS hits (AID 624327); format: functional;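 further: fluorescence from hydrolysis of an O-methyl fluorescein acyl ester substrate by the enzyme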
Estrogen receptor beta [10] = biological target: T3, Estrogen receptor beta
Vero = test: cytotoxicity of synthesized analogs in Vero cells, SAR follow-up, cytotoxicity control for West Nile virus antiviral project, cell-based, set II (AID 2402); format: functional; conditions: Chlorocebus sabaeus
[11] = biological target: T9, Heat shock factor protein 1 (Mus musculus, UniProt P38532); test: inhibition of MG132-induced HSE-luciferase signal, confirmation, cell-based, NIH3T3, luminescence, dose retest (AID 2382); format: functional;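 further: NIH3T3 fibroblasts with HSF1-driven luciferase reporter stressed by proteasome inhibitor MG132; luminescence from HSF1-driven luciferase expression after 8 hours of MG132 stress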
T9 sequence (P38532 whole entry): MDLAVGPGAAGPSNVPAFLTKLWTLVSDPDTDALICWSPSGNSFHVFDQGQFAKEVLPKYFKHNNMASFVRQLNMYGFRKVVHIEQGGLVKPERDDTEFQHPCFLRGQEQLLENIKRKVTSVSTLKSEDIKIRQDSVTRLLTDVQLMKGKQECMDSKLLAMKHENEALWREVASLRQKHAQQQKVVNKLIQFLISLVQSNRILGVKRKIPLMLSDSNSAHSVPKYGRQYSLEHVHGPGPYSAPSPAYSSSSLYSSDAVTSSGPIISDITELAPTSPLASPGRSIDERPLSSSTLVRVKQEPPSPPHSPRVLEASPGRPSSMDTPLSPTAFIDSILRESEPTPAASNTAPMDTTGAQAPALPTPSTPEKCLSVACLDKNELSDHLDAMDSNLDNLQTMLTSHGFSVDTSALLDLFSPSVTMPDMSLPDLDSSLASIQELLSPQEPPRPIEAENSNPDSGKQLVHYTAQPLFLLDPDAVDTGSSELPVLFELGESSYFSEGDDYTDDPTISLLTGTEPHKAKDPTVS

`O=C(c1ccco1)c1cn(Cc2ccc(Cl)cc2)c2ccccc12` was tested, and the IC50 [1] was 9.22 µM (active) and the IC50 [2] was 6.69 µM (active).

For `Cn1nc(C(=O)Nc2sccc2C(N)=O)ccc1=O`, the IC50 (Estrogen receptor beta [3]) was > 50 µM (not active).

In the case of `O=C1/C(=C\c2nc3ccccc3[nH]2)SC(=S)N1c1ccc(F)cc1`, the IC50 (Ephrin type-A receptor 4) is reported as > 100 µM (not active).

For `CC(=O)OC1COC(OC2C(O)C(C)OC(OC3C(OC4CCC5(C)C(CCC6(C)C5CC=C5C7CC(C)(C)CCC7(C(=O)O)CCC56C)C4(C)CO)OCC(O)C3O)C2O)C(O)C1OC(C)=O` (stereo unspecified), the IC50 [1] was > 35 µM (not active), the IC50 [2] was > 35 µM (not active) and the AC50 (INS1) was 5.67 µM (active).

`CC1=CC2(O)OCCN(CCO)C2=CC1=O` (stereo unspecified) was tested, and the IC50 [4] was > 100 µM (inactive), the IC50 (Estrogen receptor beta [3]) was < 0.023 µM (not active) and the EC50 (Protein RecA) was 10.2 µM (active). For the same compound, the IC50 [5] was 22.3 µM (active) and the AC50 [6] was 16.9 µM (active).

In the case of `COC(=O)c1cc(C(=O)Nc2nnc(C3CC3)s2)cc([N+](=O)[O-])c1`, the EC50 [7] is reported as 3.02 µM (active), the IC50 (Fatty acid synthase [8]) is reported as 13.8 µM (active) and the IC50 (Fatty acid synthase [9]) is reported as 9.7 µM (active).

For `Cc1cc(=O)[nH]c(SCC(=O)Nc2nc3c(s2)CCCC3)n1`, the IC50 (Estrogen receptor beta [10]) was > 50 µM (not active).

In the case of `OC1c2c(F)cccc2N=C2CCCCN21` (stereo unspecified), the CC50 (Vero) is reported as > 200 µM (active).

For `CCOc1ccc(NC(=O)c2cc3ccccc3cc2OC)cc1`, the EC50 [7] was 2.17 µM (active).

In the case of `O=C(CCCn1c(=S)[nH]c2cc3c(cc2c1=O)OCO3)N1CCc2ccccc2C1`, the IC50 (Estrogen receptor beta [10]) is reported as > 50 µM (not active).

In the case of `COc1ccc(OC)c(NC(=O)CSc2nc3ccccc3cc2Cc2ccccc2)c1`, the EC50 [11] is reported as > 195 µM (not active) and the IC50 (Ephrin type-A receptor 4) is reported as > 100 µM (not active).
